Structures are written as SMILES. Some results are limits rather than exact numbers.

For the compound `O=C(CCCCl)c1cc2c3c(c1)CCN3C(=O)CC2`, the melting point – broadly, the temperature of the solid-liquid transition – lay within 123 to 124 °C.

`Nc1nc(COc2ccc(Cl)cc2)nc2nccnc12` returned a melting point of 246 to 248 °C.

In turn, `O=c1[nH]c2cc(Cl)ccc2c(O)c1-c1cccc(Br)c1` returned a melting point of 358 °C.

On to `Brc1ccc(-c2nnnn2Cc2ccccc2)s1`, for which the melting point is 196 to 197 °C.

Compound `CN1CC(O)=C(C(=O)Nc2ccccn2)N(C)S1(=O)=O` came in with a melting point of 185 °C.

Compound `CS(=O)C1C(O)C(CO)OC1n1ccc(=O)[nH]c1=O` (configuration not stated) came in with a melting point of 219 to 221 °C.

In the case of `CC(C)n1c(C=O)c(-c2ccc(F)cc2)c(-c2ccc(F)cc2)c1C(=O)Nc1cccc(C(=O)N(C)C)c1`, the melting point lay within 133 to 135 °C.

In turn, `CCCc1c(CSc2nnc(SCCCS(=O)(=O)CC(=O)O)s2)ccc(C(C)=O)c1O` returned a melting point of 122 to 125 °C.

With `Cc1cc(O)n(C2CCCCC2)n1`, the melting point amounted to 153 °C.

`CCCCC(CC)C(=O)Nc1ccc(-n2nc(C(F)(F)F)cc2C(F)(F)F)cc1` (configuration not stated) gave a melting point of 127 to 128 °C.

As for `O=C(O)CCC(Oc1cccc(OCc2ccccc2)c1)c1ccccc1` (racemic), the melting point fell in the range of 100 to 104 °C.

`COc1cc(N)c(Cl)cc1C(=O)NCC12CCCN(CC1)C2` (configuration not stated) displayed a melting point of 185 to 187 °C.

For the compound `Cc1ccc(C(=O)Nc2cccc(C(F)(F)F)c2)cc1-c1ccc2ccncc2c1`, the melting point lay within 157 to 159 °C.

As for `CON=C(C)c1cc(C#N)c(=O)[nH]c1C`, the melting point is 275 to 285 °C.

Compound `COc1cc(C=C(C#N)C(N)=O)c([N+](=O)[O-])cc1OC` yielded a melting point of 265 to 266 °C.

Compound `COC(=O)CCC(C(=O)c1cccc(I)c1)c1ccccc1C` (racemic) returned a melting point of 106 to 108 °C.

The compound `Clc1ccc2c(c1)CSc1ccccc1O2` gave a melting point of 66.8 °C.

Turning to `O=c1[nH]cnc2cc(OCc3ccccc3)ccc12`, the melting point is 267 to 269 °C.

For `CCCCC(=O)Nc1ccc([N+](=O)[O-])cc1`, the melting point lay within 107 to 116 °C.

`CCN1C(=O)C(C)(C)C(=O)N(C)c2cc(OCCCn3c(=O)c(Br)cc4ccccc43)ccc21` returned a melting point of 168 to 169 °C.

With `COCCC(O)c1cc2c(=O)n(NS(C)(=O)=O)c(=O)[nH]c2cc1C(F)(F)F` (configuration not stated), the melting point was 180 to 184 °C.

As to `C/C(=C\c1ccc(C(=O)OCc2ccccc2)cc1)c1ccc2c(c1)C(C)(C)CCC2(C)C`, the melting point was in the range of 113 to 114 °C.

In turn, `COc1cccc(CC(=NO)c2ccccc2)c1` had a melting point of 72 to 73 °C.

The compound `NC(=O)c1ccc(NC(=O)c2ccccc2SSc2ccccc2C(=O)Nc2ccc(C(N)=O)cc2)cc1` gave a melting point above 270 °C.

`Cc1c(-c2ccc(O)cc2O)c(=O)oc2cc(F)ccc12` registered a melting point of 266 to 268 °C.

As for `O=[N+]([O-])c1cc(C(O)CCN2CC=C(c3ccc(Cl)cc3)CC2)ccc1F` (configuration not stated), the melting point lay within 154 to 156 °C.

Turning to `Cc1ccc(-c2ccccc2C(=O)Nc2ccc(C(=O)N3CCc4sc(NC(=N)N)nc4-c4ccccc43)cc2)cc1`, the melting point is above 230 °C.

On to `Cc1cccc(C)c1-n1cc(C#N)c(=O)n(C)c1=O`, for which the melting point is 198 to 200 °C.

Regarding `CCOC(=O)C1CCC(CS(=O)(=O)c2ccc(Oc3ccc(OC(F)(F)F)cc3)cc2)(N(O)C=O)CC1` (configuration not stated), the melting point lay within 150 to 151 °C.

For `COC(=O)CCCOc1cc([N+](=O)[O-])c(C(C)NC(=O)C(F)(F)F)cc1OC` (configuration not stated), the melting point was in the range of 156 to 157 °C.

The compound `Cc1ccc2ccccc2c1Nc1ccccc1C(=O)O` showed a melting point of 215 to 216 °C.

Regarding `CC(C)(CBr)c1cc(Cl)nnc1Cl`, the melting point fell in the range of 86.5 to 88.5 °C.

`CC(C)CC[C@@H]1[C@H](c2ccccc2)OC(=O)N1CCCN1CCCCC1` (racemic) came in with a melting point of 111 to 112 °C.

As to `CC(=O)c1ccc(OCCCCOc2ccccc2)cc1`, the melting point was in the range of 104 to 106 °C.

`N#Cc1cnn(-c2c(Cl)cc(Cl)cc2Cl)c1C=O` displayed a melting point of 152 °C.

The compound `COC(=O)c1cc(C)sc1Nc1ccc(F)cc1[N+](=O)[O-]` displayed a melting point of 149 to 151 °C.

`CC(=O)Nc1cc(C(O)CN(Cc2ccccc2)C(C)Cc2ccc(O)cc2)ccc1OCc1ccccc1` (configuration not stated) displayed a melting point of 141 to 143 °C.

`COc1ccccc1NC(=O)NC1N=C(c2ccccc2)c2ccccc2N(C)C1=O` (configuration not stated) came in with a melting point of 258 to 260 °C.

`Cc1cccnc1NC(N)=S`: the melting point was in the range of 152 to 154 °C.

Regarding `COCc1nc(C)c2c(n1)N(Cc1ccc(Br)cc1)C(=O)CC2`, the melting point is 64 to 66 °C.

Regarding `CCN1C=C(C(=O)O)C(=O)CC1c1ccc2c(c1)OCO2` (configuration not stated), the melting point lay in the range of 173 to 175 °C.

Consider `CC(C)C[C@H](NC(=O)OCC1CCCCC1)C(=O)N[C@@H](CC(C)C)C(=O)N[C@@H](C(C)C)[C@@H](O)c1c(-c2ccccc2)c1=O`, for which the melting point was 109 to 116 °C.

In the case of `Nc1ccnc(N2CCN(c3nc4cccccc-4n3)CC2)n1`, the melting point was 205 to 208 °C.

As to `CCOC(=O)c1c(CC)nn2c(-c3cccnc3)ccnc12`, the melting point lay within 119 to 120 °C.

In turn, `CCCCC(O)c1nc2c(C(F)(F)F)cccc2c(O)c1C(=O)Nc1nccs1` (configuration not stated) had a melting point of 190 °C.

`CC(=O)NCCNc1nc(-c2ccccc2)nc2[nH]c(C(=O)N3CCOCC3)cc12`: the melting point came to 250 °C.

Compound `CCOC(C)=C(C#N)C(=O)Nc1cccc(Cl)c1` displayed a melting point of 166 to 168 °C.

`Cc1ccc(NC(=O)N(C)Cc2cccc3c2CN(C2CCC(=O)NC2=O)C3=O)cc1Cl` (configuration not stated) had a melting point of 248 to 250 °C.

In turn, `CCC(=O)OC[C@H]1O[C@@H]2[C@@H](Sc3ccc(Cl)cc3N2CCN(CC)CC)[C@@H](OC(=O)CC)[C@@H]1OC(=O)CC` registered a melting point of 125 to 127 °C.

In turn, `CCCn1nc(C2CC2)c(C(N)=O)c1Cc1ccc(-c2ccccc2S(=O)(=O)NC(=O)c2ccccc2)cc1` yielded a melting point of 187 to 191 °C.

`CC(=O)Nc1ccc(S(=O)(=O)c2cccc3cnccc23)cc1` showed a melting point of 240 to 244 °C.

`CCCN(c1ncnc2[nH]cnc12)n1ccc2ccccc21` showed a melting point of 90 to 95 °C.

On to `O=C1c2cccc3c(N4CCCC4)c(Br)cc(c23)C(=O)N1O`, for which the melting point fell in the range of 170 to 172 °C.

On to `COc1ccc(Cl)cc1-c1c(Sc2ncccn2)c(=O)[nH]c2ccc(C(F)(F)F)cc12`, for which the melting point was 302 to 303 °C.

For the compound `CC(=O)Nc1c(C(=O)c2ccccc2)[nH]c2ccc(Br)cc12`, the melting point lay in the range of 192 to 194 °C.

Compound `COc1ccc(OCC(O)CN2CCN(C(N)=O)CC2)cc1` (configuration not stated) showed a melting point of 192 to 195 °C.

The compound `C/C(=C\c1ccc(OC(C)C)cc1Oc1ncc(C(F)(F)F)cc1Cl)C(=O)NS(=O)(=O)NCCc1cccs1` yielded a melting point of 130 to 131 °C.

On to `Cc1c[nH]c2c(=O)n(CC(=O)N[C@H](C=O)CC(=O)O)cnc12`, for which the melting point lay within 222 to 226 °C.

For `CC(=O)c1ccc(N)c(C#N)c1Cl`, the melting point fell in the range of 189 to 193 °C.

In the case of `COCCOCCOCC(=O)N(C)c1c(I)c(N)c(I)c(C(=O)O)c1I`, the melting point fell in the range of 100 to 109 °C.

In turn, `Cc1nc(N)c2nc(CO)n(Cc3cc(-c4ccc(F)cc4)no3)c2c1C` showed a melting point of 164 to 165 °C.

For the compound `O=C(Nc1nc2ccccc2nc1Oc1ccccc1)N1CCN(C(c2ccccc2)c2ccccc2)CC1`, the melting point was in the range of 208 to 210 °C.

These data come from a melting point compilation (Tetko et al.; mined from patent text by program, amines drawn as free bases though some values may be those of a salt).
